Results from ChEMBL document CHEMBL3244157, “Synthesis and antiinflammatory evaluation of substituted isophthalonitriles, trimesonitriles, benzonitriles, and terephthalonitriles” (J Med Chem, 1978).

Tests used:
[1] = test system: Rattus norvegicus; assay: Antiinflammatory activity in Long Evans rat assessed as reduction of carrageenan-induced pedal edema at 25 mg/kg, po administered 1 hr prior to carrageenan challenge measured after 3 hrs relative to control; type: functional; parameters: scale not given: the % may be the effect or the level left
[2] = Toxicity in mouse assessed as overt effects; type: organism-based; conditions: in vivo
[3] = test system: Rattus norvegicus; assay: Antiinflammatory activity in Long Evans rat assessed as reduction of carrageenan-induced pedal edema at 20 mg/kg, po administered 1 hr prior to carrageenan challenge measured after 3 hrs relative to control; type: functional; parameters: scale not given: the % may be the effect or the level left

## Cc1c(Cl)cccc1Nc1c(C#N)c(Cl)c(C#N)c(Cl)c1C#N
[1]
  Activity: 8%
[2]
  LD50: 42 mg/kg

## N#Cc1c(Cl)c(C#N)c(Cl)c(C#N)c1Cl
[2]
  LD50: 24 mg/kg
[3]
  Activity: 0%
